According to ChEMBL document CHEMBL6092167, “Phosphorylation as an Effective Tool to Improve Stability and Reduce Toxicity of Antimicrobial Peptides” (J Med Chem, 2024):
Activity calls are given as the source filed them. No cut-off for these calls is given here. Positions of bridges follow the written chain, without caps; N, C: chain ends. Non-standard residues stand in square brackets, D forms with d. Residues, ends and D or L forms follow the SMILES beside them. *: point of attachment. X1 = CC[C@H](C)CCCCC(=O)*; dDab = NCC[C@@H](N)C(=O)O; Dab = NCC[C@H](N)C(=O)O

What was measured:
[1] = Toxicity in ip dosed BALB/c mouse assessed as lusterless hair at LD50 dose measured within 1 hr by Karber method; assay type: organism-based; details: in vivo
[2] = Toxicity in ip dosed BALB/c mouse assessed as renal cell swelling at LD50 dose by H and E staining based assay; assay type: organism-based; details: in vivo
[3] = Toxicity in ip dosed BALB/c mouse assessed as inflammatory cell infiltration in kidney at LD50 dose by H and E staining based assay; assay type: organism-based; details: in vivo
[4] = Toxicity in ip dosed BALB/c mouse assessed as sharp breathing at LD50 dose measured within 1 hr by Karber method; assay type: organism-based; details: in vivo
[5] = Toxicity in ip dosed BALB/c mouse assessed as rapid death at LD50 dose measured within 1 hr by Karber method; assay type: organism-based; details: in vivo
[6] = Cytotoxicity against HEK293T cells incubated for 1 hr by fluorescence based microplate reader assay; assay type: toxicity, cell-based, HEK-293T; details: human
[7] = Toxicity in ip dosed BALB/c mouse assessed as alveolar constriction at LD50 dose by H and E staining based assay; assay type: organism-based; details: in vivo
[8] = Toxicity in ip dosed BALB/c mouse assessed as hemorrhage in lung at LD50 dose by H and E staining based assay; assay type: organism-based; details: in vivo
[9] = Hemolytic activity in mouse erythrocyte incubated for 1 hr by microplate reader assay; assay type: toxicity, cell-based
[10] = Toxicity in ip dosed BALB/c mouse measured after 14 days; assay type: organism-based; details: in vivo, time 14 day
[11] = Toxicity in ip dosed BALB/c mouse assessed as respiratory depression at LD50 dose measured within 1 hr by Karber method; assay type: organism-based; details: in vivo
[12] = Toxicity in ip dosed BALB/c mouse assessed as hemorrhage in kidney at LD50 dose by H and E staining based assay; assay type: organism-based; details: in vivo
[13] = Toxicity in ip dosed BALB/c mouse assessed as lateral recumbency at LD50 dose measured within 1 hr by Karber method; assay type: organism-based; details: in vivo
[14] = Toxicity in ip dosed BALB/c mouse assessed as inflammatory cell infiltration in lung at LD50 dose by H and E staining based assay; assay type: organism-based; details: in vivo
[15] = Toxicity in ip dosed BALB/c mouse assessed as convulsions at LD50 dose measured within 1 hr by Karber method; assay type: organism-based; details: in vivo
[16] = Toxicity in ip dosed BALB/c mouse assessed as pulmonary congestion at LD50 dose by H and E staining based assay; assay type: organism-based; details: in vivo
Pseudomonas aeruginosa [17] = assay: Antibacterial activity against Pseudomonas aeruginosa ATCC 27853 incubated for 18 to 24 hrs by broth microdilution method; assay type: functional; details: time 18-24 hrs
Escherichia coli [18] = assay: Antibacterial activity against Escherichia coli ATCC 25922 incubated for 18 to 24 hrs by broth microdilution method; assay type: functional; details: time 18-24 hrs
Staphylococcus aureus [19] = assay: Antibacterial activity against Staphylococcus aureus ATCC 25923 incubated for 18 to 24 hrs by broth microdilution method; assay type: functional; details: time 18-24 hrs
Staphylococcus aureus [20] = assay: Antibacterial activity against Staphylococcus aureus ATCC 25923 assessed as fold increase in MIC in presence of Na+; assay type: functional
Klebsiella pneumoniae [21] = assay: Drug resistance development in Klebsiella pneumoniae ATCC 700603 assessed as fold increase in MIC measured after 20 passage; assay type: functional
Klebsiella pneumoniae [22] = assay: Synergistic antibacterial activity against Klebsiella pneumoniae ATCC 700603 assessed as fractional inhibitory concentration index at 1/4 to 4 times MIC incubated for 18 to 24 hrs in presence of ciprofloxacin by checkerboard assay; assay type: functional; details: time 18-24 hrs
Klebsiella pneumoniae [23] = assay: Antibacterial activity against Klebsiella pneumoniae ATCC 700603 incubated for 18 to 24 hrs by broth microdilution method; assay type: functional; details: time 18-24 hrs
Klebsiella pneumoniae [24] = assay: Additive antibacterial activity against Klebsiella pneumoniae ATCC 700603 assessed as fractional inhibitory concentration index at 1/4 to 4 times MIC incubated for 18 to 24 hrs in presence of kanamycin by checkerboard assay; assay type: functional; details: time 18-24 hrs
Escherichia coli [25] = assay: Antibacterial activity against Escherichia coli 780 incubated for 18 to 24 hrs by broth microdilution method; assay type: functional; details: time 18-24 hrs
Staphylococcus aureus [26] = assay: Antibacterial activity against methicillin resistant Staphylococcus aureus 48 incubated for 18 to 24 hrs by broth microdilution method; assay type: functional; details: time 18-24 hrs
Staphylococcus aureus [27] = assay: Bactericidal activity against Staphylococcus aureus ATCC 25923 at 2 times MIC incubated for 24 hrs by time kill assay; assay type: functional
Staphylococcus aureus [28] = assay: Antibacterial activity against methicillin resistant Staphylococcus aureus ATCC 33591 incubated for 18 to 24 hrs by broth microdilution method; assay type: functional; details: time 18-24 hrs
Escherichia coli [29] = assay: Antibacterial activity against Escherichia coli 850 incubated for 18 to 24 hrs by broth microdilution method; assay type: functional; details: time 18-24 hrs
Pseudomonas aeruginosa [30] = assay: Antibacterial activity against Pseudomonas aeruginosa 119 incubated for 18 to 24 hrs by broth microdilution method; assay type: functional; details: time 18-24 hrs
Bacillus subtilis = assay: Antibacterial activity against Bacillus subtilis ATCC 23857 incubated for 18 to 24 hrs by broth microdilution method; assay type: functional; details: time 18-24 hrs
Staphylococcus aureus [31] = assay: Antibacterial activity against Staphylococcus aureus 794 incubated for 18 to 24 hrs by broth microdilution method; assay type: functional; details: time 18-24 hrs
Acinetobacter baumannii = assay: Antibacterial activity against Acinetobacter baumannii ATCC 19606 incubated for 18 to 24 hrs by broth microdilution method; assay type: functional; details: time 18-24 hrs
Staphylococcus aureus [32] = assay: Antibacterial activity against Staphylococcus aureus ATCC 25923 preincubated for 6 hrs in presence of chymotrypsin followed by heat inactivation for 15 mins prior to bacterial addition and measured after 18 to 24 hrs by microplate reader assay; assay type: functional, organism-based; details: time 18-24 hrs
Klebsiella pneumoniae [33] = assay: Antibacterial activity against Klebsiella pneumoniae ATCC 700603 infected in BALB/c mouse lung infection model assessed as reduction in hepatic hemorrhage at 2.46 mg/kg, ip administered twice daily for 3 days and measured after 7 days; assay type: functional, organism-based; details: time 10.0 day
Klebsiella pneumoniae [34] = assay: Antibacterial activity against Klebsiella pneumoniae ATCC 700603 infected in BALB/c mouse lung infection model assessed as reduction in pulmonary tissue bleeding at 2.46 mg/kg, ip administered twice daily for 3 days and measured after 7 days; assay type: functional, organism-based; details: time 10.0 day
Staphylococcus aureus [35] = assay: Antibacterial activity against Staphylococcus aureus ATCC 25923 preincubated for 6 hrs in presence of trypsin followed by heat inactivation for 15 mins prior to bacterial addition and measured after 18 to 24 hrs by microplate reader assay; assay type: functional, organism-based; details: time 18-24 hrs
Klebsiella pneumoniae [36] = assay: Antibacterial activity against Klebsiella pneumoniae 700603 preincubated for 6 hrs in presence of chymotrypsin followed by heat inactivation for 15 mins prior to bacterial addition and measured after 18 to 24 hrs by microplate reader assay; assay type: functional, organism-based; details: time 18-24 hrs
Klebsiella pneumoniae [37] = assay: Antibiofilm activity against Klebsiella pneumoniae ATCC 700603 assessed as eradication of preformed biofilms at 4 times MIC incubated for 24 hrs by crystal violet staining based assay; assay type: functional, organism-based
Escherichia coli [38] = assay: Antibiofilm activity against Escherichia coli ATCC 25922 assessed as eradication of preformed biofilms at 4 times MIC incubated for 24 hrs by crystal violet staining based assay; assay type: functional, organism-based
Klebsiella pneumoniae [39] = assay: Antibacterial activity against Klebsiella pneumoniae 700603 preincubated for 6 hrs in presence of trypsin followed by heat inactivation for 15 mins prior to bacterial addition and measured after 18 to 24 hrs by microplate reader assay; assay type: functional, organism-based; details: time 18-24 hrs
Pseudomonas aeruginosa [40] = assay: Antibiofilm activity against Pseudomonas aeruginosa ATCC 27853 assessed as eradication of preformed biofilms at 4 times MIC incubated for 24 hrs by crystal violet staining based assay; assay type: functional, organism-based
Klebsiella pneumoniae [41] = assay: Antibacterial activity against Klebsiella pneumoniae ATCC 700603 infected in BALB/c mouse lung infection model assessed as reduction in alveolar contraction at 2.46 mg/kg, ip administered twice daily for 3 days and measured after 7 days; assay type: functional, organism-based; details: time 10.0 day

CC(C)CCCCC(=O)N[C@@H](CCN)C(=O)N[C@H](C(=O)N[C@@H](CCN)C(=O)N[C@H]1CCNC(=O)[C@H]([C@@H](C)O)NC(=O)[C@H](CCN)NC(=O)[C@H](CCN)NC(=O)[C@H](CC(C)C)NC(=O)[C@@H](Cc2ccccc2)NC(=O)[C@H](CCN)NC1=O)[C@@H](C)O.CC[C@H](C)CCCCC(=O)N[C@@H](CCN)C(=O)N[C@H](C(=O)N[C@@H](CCN)C(=O)N[C@H]1CCNC(=O)[C@H]([C@@H](C)O)NC(=O)[C@H](CCN)NC(=O)[C@H](CCN)NC(=O)[C@H](CC(C)C)NC(=O)[C@@H](Cc2ccccc2)NC(=O)[C@H](CCN)NC1=O)[C@@H](C)O (X1-[Dab]T[Dab][Dab][Dab][dF]L[Dab][Dab]T; lactam 4-C) [listing 1 of 2 here]
Activity [1]: Toxic
Activity [2]: Toxic
Activity [3]: Toxic
Activity [4]: Toxic
Activity [5]: Toxic
CC50 at 1 h [6]: 128 µM
Activity [7]: Toxic
Activity [8]: Toxic
MHC [9]: > 256 µM
LD50 at 336 h [10]: 25.7 mg/kg
Activity [11]: Toxic
Activity [12]: Toxic
Activity [13]: Toxic
Activity [14]: Toxic
Activity [15]: Toxic
Activity [16]: Toxic

CC(C)CCCCC(=O)N[C@@H](CCN)C(=O)N[C@H](C(=O)N[C@@H](CCN)C(=O)N[C@H]1CCNC(=O)[C@H]([C@@H](C)O)NC(=O)[C@H](CCN)NC(=O)[C@H](CCN)NC(=O)[C@H](CC(C)C)NC(=O)[C@@H](Cc2ccccc2)NC(=O)[C@H](CCN)NC1=O)[C@@H](C)O.CC[C@H](C)CCCCC(=O)N[C@@H](CCN)C(=O)N[C@H](C(=O)N[C@@H](CCN)C(=O)N[C@H]1CCNC(=O)[C@H]([C@@H](C)O)NC(=O)[C@H](CCN)NC(=O)[C@H](CCN)NC(=O)[C@H](CC(C)C)NC(=O)[C@@H](Cc2ccccc2)NC(=O)[C@H](CCN)NC1=O)[C@@H](C)O (X1-[Dab]T[Dab][Dab][Dab][dF]L[Dab][Dab]T; lactam 4-C) [listing 2 of 2 here]
MIC (Pseudomonas aeruginosa [17]): 2 µM
MIC (Escherichia coli [18]): 4 µM
MIC (Staphylococcus aureus [19]): 16 µM
fold change (FC) (Staphylococcus aureus [20]): 4
fold change (FC) (Klebsiella pneumoniae [21]): 64
fractional inhibitory concentration index (FICI) (Klebsiella pneumoniae [22]): 0.313
MIC (Klebsiella pneumoniae [23]): 4 µM
fractional inhibitory concentration index (FICI) (Klebsiella pneumoniae [24]): 0.313
MIC (Escherichia coli [25]): 2 µM
MIC (Staphylococcus aureus [26]): 16 µM
Activity (Staphylococcus aureus [27]): 100%
MIC (Staphylococcus aureus [28]): 16 µM
MIC (Escherichia coli [29]): 2 µM
MIC (Pseudomonas aeruginosa [30]): 2 µM
MIC (Bacillus subtilis): 4 µM
MIC (Staphylococcus aureus [31]): 8 µM
MIC (Acinetobacter baumannii): 2 µM

CC(C)CCCCC(=O)N[C@@H](CCN)C(=O)N[C@H](C(=O)N[C@@H](CCN)C(=O)N[C@H]1CCNC(=O)[C@H]([C@@H](C)O)NC(=O)[C@H](CCN)NC(=O)[C@H](CCN)NC(=O)[C@H](CC(C)C)NC(=O)[C@@H](Cc2ccccc2)NC(=O)[C@@H](CCN)NC1=O)[C@@H](C)O.CC[C@H](C)CCCCC(=O)N[C@@H](CCN)C(=O)N[C@H](C(=O)N[C@@H](CCN)C(=O)N[C@H]1CCNC(=O)[C@H]([C@@H](C)O)NC(=O)[C@H](CCN)NC(=O)[C@H](CCN)NC(=O)[C@H](CC(C)C)NC(=O)[C@@H](Cc2ccccc2)NC(=O)[C@@H](CCN)NC1=O)[C@@H](C)O (X1-[Dab]T[Dab][Dab][dDab][dF]L[Dab][Dab]T; lactam 4-C)
Activity (Staphylococcus aureus [32]): Active; High Enzymatic Stability
Activity (Klebsiella pneumoniae [33]): inactive
Activity (Klebsiella pneumoniae [34]): inactive
Activity (Staphylococcus aureus [35]): Active; High Enzymatic Stability
Activity (Klebsiella pneumoniae [36]): Active; High Enzymatic Stability
Activity (Klebsiella pneumoniae [37]): Active
Activity (Escherichia coli [38]): Active
Activity (Klebsiella pneumoniae [39]): Active; High Enzymatic Stability
Activity (Pseudomonas aeruginosa [40]): Active
Activity (Klebsiella pneumoniae [41]): inactive
